Data from patent US11782064B2, “Methods for simultaneous measurement of multiple biological signals from spectrally identical fluorescent reporters” (Massachusetts Institute of Technology, priority 2019, dated 2023).

Test system: cultured mouse hippocampal neurons
Test: Multiplexed imaging of four or five reporters under forskolin, PMA or DHPG
Format: cell-based
Method: Live neuron imaging was performed on a spinning disk confocal microscope (a Yokogawa® CSU-W1 Confocal Scanner Unit on a Nikon® Eclipse T1 microscope) equipped with a 40×1.15 NA water immersion objective (Nikon® MRD77410) and a Zyla® PLUS 4.2 Megapixel camera controlled by NIS-Elements® AR software. The filter set for GFP was used for imaging GFP intensity-based reporters (GCaMP6f and cAMPr), and the filter set for GFP and the 405 nm excitation filter was used for imaging 488 nm/405 nm excitation ratiometric reporters (ExRaiAKAR and ExRaiCKAR). The filter set for RFP was used for imaging RFP intensity-based reporters (RAB_EKARev). For electrophysiological characterizations of GCaMP6f and S1-GCaMP6f (FIGS. 8D-G, 9A-Q), neurons were recorded in the GFP emission channel at a single focal plane at 20 milliseconds per frame (50 Hz). In the characterization and spatially multiplexed imaging experiments in FIGS. 9R-V, 10D-10G, 10M-10O, neurons were recorded in the GFP emission channel at a single focal plane at 50 milliseconds per frame (20 Hz). […]

Q: `CCCCCCCCCCCCCC(=O)O[C@@H]1[C@@H](C)[C@@]2(O)[C@@H](C=C(CO)C[C@]3(O)C(=O)C(C)=C[C@@H]23)[C@@H]2C(C)(C)[C@]12OC(C)=O` [PMA, phorbol 12-myristate 13-acetate] was tested. Which “signaling activities induced in neurons” value (100 ng/mL PMA for 3 minutes) did it give?
A: increases of PKC activity

Q: `N[C@H](C(=O)O)c1cc(O)cc(O)c1` [DHPG, (S)-3,5-Dihydroxyphenylglycine] was tested. Which “signaling activities induced in neurons” value (100 μM DHPG for 3 minutes) did it give?
A: produced increases in cAMP, PKA, PKC, and ERK levels
